Where two headings read alike, the source gives them in different places.
Experiments:
[1] = tested on: influenza A virus A/PR/8/34 (H1N1); test: microbe, parasite or virus in culture; assay type: cell-based; details: for IC50: read-out: IC50 H1N1 PR8 strain
[2] = molecular target: full-length PA protein of influenza A RNA polymerase (Influenza A virus, UniProt P03433); test: in vitro PA endonuclease assay with recombinant full-length PA protein (M13 mp18 digestion); assay type: biochemical, influenza A virus (A/PR/8/34 (H1N1)); details: 10 µM fullerene derivative; Fig. 3C
Source text: We expressed the recombinant full-length PA protein by using a baculovirus to infect Sf9 insect cells (Fig. 3A) and purified it using a Ni-agarose and HiTrap-Q column (Fig. 3B). […] Then, we tested the 12 fullerene derivatives using this same assay. The fullerene derivatives 2–5, 7, 8, 10, and 11 inhibited the endonuclease activity of full-length PA (Fig. 3C), which is consistent with the results for the PA endonuclease domain (Fig. 2C). The M13 mp18 band in the no. 12-treated lane was degraded (Fig. 3C lane 14), the band in the no.
The cDNA fragment corresponding to the full-length protein-coding region of PA was amplified by PCR [38] from pBMSA-PA using the primers PA_start_TOPO ([…]), PA stop ([…]), PA_mid_anti ([…]), and PA_mid_TOPO ([…]). The amplified product was then subcloned into the pENTR/D-TOPO plasmid (Gateway®, Life Technologies™, Carlsbad, CA, USA) using topoisomerase I cloning. The resulting construct was then converted to pDEST10-PA using the clonase (Fig. 3A). The plasmid was transfected into Sf9 insect cells using the helper virus. The resultant baculovirus was again transfected into Sf9 cells. The expressed full-length PA protein was purified using Ni^2+-agarose and a HiTrap Q FF column (GE Healthcare) with the AKTA prime plus system (Fig. 3B).
(§1) Influenza A RNA polymerase PA endonuclease activity assays were performed as described by Dias et al. with some modifications [12]–[16]. Briefly, the pH was lowered from 8.0 to 7.3, and 1 µg M13 mp18 single-stranded circular phage DNA was used as the substrate. A total of 0.25 µg recombinant PA endonuclease domain or full-length PA protein were added to 100 µL assay buffer for each reaction (the final concentration of the protein was approximately 0.1 µM). For the fullerene derivative nuclease assay, no PA protein was added at this step. The fullerene derivatives (summarized in Fig. 1) were then added to the reaction, and the products were analyzed by agarose electrophoresis and stained with ethidium bromide.

[3] = molecular target: PA N-terminal endonuclease domain (residues 1–220) of influenza A RNA polymerase (Influenza A virus, UniProt P03433); test: in vitro PA endonuclease assay with recombinant PA endonuclease domain (M13 mp18 digestion, agarose electrophoresis); assay type: biochemical, influenza A virus (A/PR/8/34 (H1N1)); details: Fig. 2C; for inhibition of the digestion of M13 mp18 by the PA endonuclease domain: 10 µM fullerene derivative
Procedure: For the in vitro PA endonuclease assay, we expressed and purified a recombinant influenza PA endonuclease domain (1–220 residues; Fig. 2A, B) using bacteria as described previously [15]–[17]. For the assay, we incubated 0.1 µM recombinant PA endonuclease domain with 1 or 10 µM of each fullerene derivative (Fig. 2C). The PA endonuclease domain digested M13 mp18 circular single-stranded DNA in vitro (Fig. 2C, lanes 1 and 2) [12]–[16], and we investigated whether any of the fullerene derivatives could inhibit this activity. […] This is the first study to report that fullerene derivatives can inhibit the activity of influenza enzymes. Fullerene derivative no.
The influenza A virus (A/PR/8/34 (H1N1)) RNA polymerase PA plasmid, pBMSA-PA, was obtained from the DNA bank at Riken BioResource Center (Tsukuba, Japan; originally deposited by Susumu Nakada). The cDNA fragment corresponding to the PA N-terminal endonuclease domain (residues 1–220; Fig. 2A) was amplified by polymerase chain reaction (PCR) from pBMSA-PA. The amplified product was subcloned into the pET28a (+) plasmid (Novagen, Madison, WI, USA). The induction of recombinant protein expression was achieved by the addition of isopropyl-D-thiogalactopyranoside, and this was followed by purification using Ni^2+-agarose. The recombinant PA endonuclease domain protein was further purified to near homogeneity (Fig. 2B) using a HiTrapQ-FF column (GE Healthcare, Buckinghamshire, UK).
as §1

[4] = tested on: M13 mp18 single-stranded circular phage DNA; test: fullerene derivative nuclease assay in the absence of PA protein; assay type: biochemical; details: 10 µM; absence of PA endonuclease; M13 mp18 substrate; Fig. 4
[5] = tested on: influenza A virus (A/PR/8/34 (H1N1)); assay type: cell-based; details: 100 µM, A/PR8/34 (H1N1), western blotting
[6] = tested on: influenza A virus A/Aichi/2/68 (H3N2); test: microbe, parasite or virus in culture; assay type: cell-based; details: for IC50: read-out: IC50 H3N2 Aichi strain
[7] = set-up: method as in PMID 14643333; details: cited from earlier work
[8] = set-up: method as in PMID 14643333; details: cited from earlier work; remark: listed apart in the source
MDCK cells = details: 12.5 to 100 µM, 24 h post-incubation
[9] = 0.1 µM recombinant PA endonuclease domain
[10] = Influenza A virus, H3N2, MDCK, 24 h

Compound | number of NP-positive cells in comparison with the control (DMSO) [1] | inhibition of the endonuclease activity of full-length PA (M13 mp18 band) [2] | expression levels of influenza A NP and NS1 proteins compared with DMSO-treated cells [5] | inhibition of the digestion of M13 mp18 by the PA endonuclease domain [3, 9] | IC50 ([1]; Influenza A virus, MDCK, 24 h) [µM] | IC50 [6, 10] [µM] | further results
CN1CC23c4c5c6c7c8c9c(c%10c%11c2c2c4c4c%12c5c5c6c6c8c8c%13c9c9c%10c%10c%11c%11c2c2c4c4c%12c%12c5c5c6c8c6c8c%13c9c9c%10c%10c%11c2c2c4c4c%12c5c6c5c8c9c%10c2c45)C73C1c1cc[n+](C)cc1 (centres unmarked) [no. 12, 4-(1′-methyl [60]fullerenopyrrolidin-2′-yl)-1-methylpyridinium iodide] | significantly reduced | degraded | slightly reduced |  |  |  | IC50 [1]: 78 µM; inhibition of the digestion of M13 mp18 by the PA endonuclease domain ([3]; […]): slightly inhibited; nuclease activity of the fullerene derivative by itself [4]: weaker nuclease activity; IC50 [6]: 63 µM
1,1,1′,1′-tetramethyl [60]fullerenodipyrrolidinium diiodide [no. 6] |  |  | reduced | no or weak inhibitory activity |  |  | IC50 [1]: 20 µM; antiviral effects against the influenza A virus (overall conclusion) ([1]; summary of immunostaining and western blotting): strongest antiviral activity; antiproliferative activity [7]: antiproliferative and antibacterial activity; mobility shift of M13 mp18 ([3]; lane 13): caused a mobility shift; nuclease activity of the fullerene derivative by itself [4]: significant nuclease activity; antibacterial activity [8]: antiproliferative and antibacterial activity; IC50 [6]: 31 µM
CCN1C(C(=O)O)C23c4c5c6c7c8c9c(c%10c%11c2c2c4c4c%12c5c5c6c6c8c8c%13c9c9c%10c%10c%11c%11c2c2c4c4c%12c%12c5c5c6c8c6c8c%13c9c9c%10c%10c%11c2c2c4c4c%12c5c6c5c8c9c%10c2c45)C73C1C(=O)O (centres unmarked) [no. 9, 1-ethyl [60]fullerenopyrrolidine-2,5-dicarboxylic acid] | comparable | slightly inhibited | comparable | no or weak inhibitory activity |  |  | IC50 H1N1 PR8 strain [1]: could not be calculated; IC50 H3N2 Aichi strain [6]: could not be calculated; number of NP-positive cells in comparison with the DMSO [6]: comparable
CCOC(=O)CN1C(C(=O)O)C23c4c5c6c7c8c9c(c%10c%11c2c2c4c4c%12c5c5c6c6c8c8c%13c9c9c%10c%10c%11c%11c2c2c4c4c%12c%12c5c5c6c8c6c8c%13c9c9c%10c%10c%11c2c2c4c4c%12c5c6c5c8c9c%10c2c45)C73C1C(=O)OCC (centres unmarked) [no. 10, 1-ethoxycarbonylmethyl [60]fullerenopyrrolidine-2,5-dicarboxylic acid 2-ethyl ester] | slightly decreased | inhibited | slightly reduced | significantly inhibited | > 100 | > 100 | 
O=C(O)CN1CCN(CC(=O)O)C23c4c5c6c7c8c9c(c%10c%11c2c2c4c4c%12c5c5c6c6c8c8c%13c9c9c%10c%10c%11c%11c2c2c4c4c%12c%12c5c5c6c8c6c8c%13c9c9c%10c%10c%11c2c2c4c4c%12c5c6c5c8c9c%10c2c45)C713 (centres unmarked) [no. 7, [60]fullerenopiperazine-1,4-diacetic acid] |  | inhibited | slightly reduced | significantly inhibited | > 100 | > 100 | 
[60]fullerenotricyclopropane-1,1,1′,1′,1′′,1′′-hexacarboxylic acid [no. 8] |  | inhibited | slightly reduced | significantly inhibited |  |  | IC50 [1]: 37 µM; IC50 [6]: > 100 µM
O=C(O)C1NC(c2ccccc2)C23c4c5c6c7c8c9c(c%10c%11c2c2c4c4c%12c5c5c6c6c8c8c%13c9c9c%10c%10c%11c%11c2c2c4c4c%12c%12c5c5c6c8c6c8c%13c9c9c%10c%10c%11c2c2c4c4c%12c5c6c5c8c9c%10c2c45)C713 (centres unmarked) [no. 11, 5-phenyl [60]fullerenopyrrolidine-2-carboxylic acid] | significantly reduced | inhibited | reduced | significantly inhibited | 44 | > 100 | 
CC(C)C1NC(C(=O)O)C23c4c5c6c7c8c9c(c%10c%11c2c2c4c4c%12c5c5c6c6c8c8c%13c9c9c%10c%10c%11c%11c2c2c4c4c%12c%12c5c5c6c8c6c8c%13c9c9c%10c%10c%11c2c2c4c4c%12c5c6c5c8c9c%10c2c45)C713 (centres unmarked) [no. 5, 5-isopropyl [60]fullerenopyrrolidine-2-carboxylic acid] |  |  | reduced |  | 37 | > 100 | 
O=C(O)CN1C(C(=O)O)C23c4c5c6c7c8c9c(c%10c%11c2c2c4c4c%12c5c5c6c6c8c8c%13c9c9c%10c%10c%11c%11c2c2c4c4c%12c%12c5c5c6c8c6c8c%13c9c9c%10c%10c%11c2c2c4c4c%12c5c6c5c8c9c%10c2c45)C73C1C(=O)O (centres unmarked) [no. 4, 1-carboxymethyl [60]fullerenopyrrolidine-2,5-dicarboxylic acid] |  |  |  |  | 70 | 91 | 
COC1Cc2cccc(c2)Oc2c(O)cccc2CCc2ccc(cc2)Oc2cc1cc(O)c2O (centres unmarked) [Marchantin E, reference compound] |  |  | reduced |  | 43 | 53 | cell viability vs DMSO-treated cells (MTT) (MDCK cells): not significantly different
Oc1cc2c(cc1O)CC13c4c5c6c7c8c9c(c%10c%11c1c1c4c4c%12c5c5c6c6c8c8c%13c9c9c%10c%10c%11c%11c1c1c4c4c%12c%12c5c5c6c8c6c8c%13c9c9c%10c%10c%11c1c1c4c4c%12c5c6c5c8c9c%10c1c45)C73C2 (centres unmarked) [no. 1, 1,4-dihydro-6,7-dihydroxy [60]fullerenonaphthlene] | comparable | slightly inhibited | comparable | no or weak inhibitory activity |  |  | IC50 H1N1 PR8 strain [1]: could not be calculated; solubility in water (solubility in water): relatively low; IC50 H3N2 Aichi strain [6]: could not be calculated; number of NP-positive cells in comparison with the DMSO [6]: comparable

Reference: PMC3681905, “Anti-Influenza Activity of C60 Fullerene Derivatives” (PLoS ONE, 2013)
